The source made the active and inactive calls. No cut-off for these calls is given here.
Assays:
[1] = tested on: NCI-H446; experiment: Induction of apoptosis in human NCI-H446 cells assessed as necrotic cells at 0.5 uM incubated for 24 hrs by Annexin V-FITC/PI staining based flow cytometric analysis (reference value: 1.17 %); assay type: functional
[2] = Cytotoxicity against human HL7702 cells assessed as reduction in cell viability incubated for 48 hrs by MTT assay; assay type: toxicity, cell-based; conditions: HL7702 (L02) cells
[3] = tested on: Cell membrane; experiment: Induction of mitochondrial membrane potential loss in human NCI-H446 cells at 0.25 uM incubated for 24 hrs by JC-1 staining based flow cytometric analysis; assay type: cell membranes
[4] = tested on: A549; experiment: Antiproliferative activity against human A549 cells assessed as reduction in cell viability incubated for 48 hrs by MTT assay; assay type: functional, cell-based; conditions: A549, 48 h
[5] = tested on: NCI-H446; experiment: Induction of apoptosis in human NCI-H446 cells assessed as necrotic cells at 1 uM incubated for 24 hrs by Annexin V-FITC/PI staining based flow cytometric analysis (reference value: 1.17 %); assay type: functional
[6] = tested on: NCI-H446; experiment: Induction of apoptosis in human NCI-H446 cells assessed as early apoptotic cells at 0.5 uM incubated for 24 hrs by Annexin V-FITC/PI staining based flow cytometric analysis (reference value: 0.37 %); assay type: functional
[7] = tested on: NCI-H446; experiment: Induction of apoptosis in human NCI-H446 cells assessed as late apoptotic cells at 0.25 uM incubated for 24 hrs by Annexin V-FITC/PI staining based flow cytometric analysis (reference value: 1.71 %); assay type: functional
[8] = tested on: HepG2; experiment: Antiproliferative activity against human HepG2 cells assessed as reduction in cell viability incubated for 48 hrs by MTT assay; assay type: functional, cell-based; conditions: HepG2, 48 h
[9] = tested on: NCI-H446; experiment: Induction of apoptosis in human NCI-H446 cells assessed as early apoptotic cells at 2 uM incubated for 24 hrs by Annexin V-FITC/PI staining based flow cytometric analysis (reference value: 0.37 %); assay type: functional
[10] = tested on: NCI-H446; experiment: Induction of apoptosis in human NCI-H446 cells assessed as necrotic cells at 2 uM incubated for 24 hrs by Annexin V-FITC/PI staining based flow cytometric analysis (reference value: 1.17 %); assay type: functional
[11] = tested on: NCI-H446; experiment: Induction of apoptosis in human NCI-H446 cells assessed as late apoptotic cells at 2 uM incubated for 24 hrs by Annexin V-FITC/PI staining based flow cytometric analysis (reference value: 1.71 %); assay type: functional
[12] = tested on: NCI-H446; experiment: Induction of apoptosis in human NCI-H446 cells assessed as late apoptotic cells at 1 uM incubated for 24 hrs by Annexin V-FITC/PI staining based flow cytometric analysis (reference value: 1.71 %); assay type: functional
[13] = Cytotoxicity against HBE (human bronchial epithelial) cells assessed as reduction in cell viability incubated for 48 hrs by MTT assay; assay type: toxicity, cell-based
[14] = Toxicity in Caenorhabditis elegans assessed as reduction in movement speed at 100 uM measured after 72 hrs by […] microscopic analysis
[15] = tested on: NCI-H446; experiment: Induction of apoptosis in human NCI-H446 cells assessed as necrotic cells at 0.25 uM incubated for 24 hrs by Annexin V-FITC/PI staining based flow cytometric analysis (reference value: 1.17 %); assay type: functional
[16] = tested on: NCI-H446; experiment: Induction of apoptosis in human NCI-H446 cells assessed as early apoptotic cells at 0.25 uM incubated for 24 hrs by Annexin V-FITC/PI staining based flow cytometric analysis (reference value: 0.37 %); assay type: functional
[17] = tested on: NCI-H446; experiment: Induction of apoptosis in human NCI-H446 cells assessed as early apoptotic cells at 1 uM incubated for 24 hrs by Annexin V-FITC/PI staining based flow cytometric analysis (reference value: 0.37 %); assay type: functional
[18] = tested on: NCI-H446; experiment: Induction of apoptosis in human NCI-H446 cells assessed as viable cells at 2 uM incubated for 24 hrs by Annexin V-FITC/PI staining based flow cytometric analysis (reference value: 96.8 %); assay type: functional; conditions: read-out: Activity
[19] = tested on: NCI-H446; experiment: Antiproliferative activity against human NCI-H446 cells assessed as reduction in cell viability incubated for 48 hrs by MTT assay; assay type: functional, cell-based; conditions: for IC50: NCI-H446, 48 h
[20] = tested on: NCI-H446; experiment: Induction of ROS production in human NCI-H446 cells assessed as increase in intracellular ROS level at 2 uM incubated for 24 hrs by DCFH-DA staining based flow cytometric analysis; assay type: functional, cell-based
[21] = tested on: NCI-H446; experiment: Induction of apoptosis in human NCI-H446 cells assessed as late apoptotic cells at 0.5 uM incubated for 24 hrs by Annexin V-FITC/PI staining based flow cytometric analysis (reference value: 1.71 %); assay type: functional
[22] = tested on: NCI-H446; experiment: Induction of apoptosis in human NCI-H446 cells assessed as viable cells at 0.5 uM incubated for 24 hrs by Annexin V-FITC/PI staining based flow cytometric analysis (reference value: 96.8 %); assay type: functional; conditions: read-out: Activity
[23] = tested on: NCI-H446; experiment: Induction of apoptosis in human NCI-H446 cells assessed as viable cells at 1 uM incubated for 24 hrs by Annexin V-FITC/PI staining based flow cytometric analysis (reference value: 96.8 %); assay type: functional; conditions: read-out: Activity
[24] = Toxicity in Caenorhabditis elegans assessed as reduction in growth by measuring body length at 20 to 100 uM measured after 72 hrs by […] microscopic analysis; conditions: dose 20-100 µM
[25] = tested on: NCI-H446; experiment: Induction of apoptosis in human NCI-H446 cells assessed as viable cells at 0.25 uM incubated for 24 hrs by Annexin V-FITC/PI staining based flow cytometric analysis (reference value: 96.8 %); assay type: functional; conditions: read-out: Activity
[26] = Induction of apoptosis in HBE (human bronchial epithelial) cells assessed as change in nuclei morphology at 1 to 2 uM incubated for 24 hrs by DAPI staining based fluorescence inverted microscopic analysis; assay type: toxicity, cell-based; conditions: dose 1-2 µM
[27] = tested on: NCI-H446; experiment: Antiproliferative activity against human NCI-H446 cells assessed as reduction in cell viability at 0.5 to 8 uM by MTT assay; assay type: functional, cell-based; conditions: dose 0.5-8 µM, time 24-72 hrs, TDE = time-dependent effect
[28] = tested on: NCI-H446; experiment: Cell cycle arrest in human NCI-H446 cells assessed as G0/G1 phase cells incubated for 24 hrs by PI staining based flow cytometric analysis (reference value: 52.37%); assay type: functional
[29] = tested on: NCI-H446; experiment: Cell cycle arrest in human NCI-H446 cells assessed as increase in subG1 phase cells at 0.25 to 2 uM incubated for 24 hrs by PI staining based flow cytometric analysis; assay type: functional; conditions: dose 0.25-2 µM
[30] = Drug uptake in human NCI-H446 cells assessed as green fluorescence at 2.5 uM incubated for 5 hrs by confocal microscopic analysis; assay type: ADME, cell-based; conditions: nci-h446, 5 h
[31] = tested on: NCI-H446; experiment: Cell cycle arrest in human NCI-H446 cells assessed as decrease in S phase cells at 0.25 to 2 uM incubated for 24 hrs by PI staining based flow cytometric analysis; assay type: functional; conditions: dose 0.25-2 µM
[32] = tested on: NCI-H446; experiment: Induction of apoptosis in human NCI-H446 cells assessed as decrease in caspase-9 level at 0.5 to 2 uM by Western blot analysis; assay type: functional, cell-based; conditions: dose 0.5-2 µM
[33] = tested on: NCI-H446; experiment: Induction of apoptosis in human NCI-H446 cells assessed as decrease in caspase-3 level at 0.5 to 2 uM by Western blot analysis; assay type: functional, cell-based; conditions: dose 0.5-2 µM
[34] = tested on: NCI-H446; experiment: Induction of ROS production in human NCI-H446 cells assessed as increase in intracellular ROS level incubated for 24 hrs by DCFH-DA staining based flow cytometric analysis; assay type: functional, cell-based; conditions: dose 0.25-2 µM
[35] = Drug localization in human NCI-H446 cell mitochondria at 2.5 uM incubated for 5 hrs by MitoTracker Red CMXRos dye based confocal microscopic analysis; assay type: ADME; conditions: nci-h446, 5 h
[36] = Toxicity in Caenorhabditis elegans assessed as reduction in movement speed at 20 to 100 uM measured after 72 hrs by […] microscopic analysis; conditions: dose 20-100 µM
[37] = tested on: NCI-H446; experiment: Induction of apoptosis in human NCI-H446 cells assessed as change in cellular nuclei morphology at 1 uM incubated for 24 hrs by DAPI staining based fluorescence inverted microscopic analysis; assay type: functional, cell-based
[38] = tested on: NCI-H446; experiment: Induction of apoptosis in human NCI-H446 cells assessed as increase in cleaved caspase-3 level at 0.5 to 2 uM by Western blot analysis; assay type: functional, cell-based; conditions: dose 0.5-2 µM
[39] = tested on: NCI-H446; experiment: Antiproliferative activity against human NCI-H446 cells assessed as reduction in cell viability incubated for 24 to 72 hrs by MTT assay; assay type: functional, cell-based; conditions: dose 0.5-8 µM, time 24-72 hrs
[40] = tested on: CDDP-resistant A549 cell; experiment: Sensitization of cisplatin-induced antiproliferative activity against human CDDP-resistant A549 cells assessed as inhibition of cell growth at 0.25 uM incubated for 48 hrs by MTT assay; assay type: functional, cell-based
[41] = Toxicity in Caenorhabditis elegans assessed as reduction in growth by measuring body length at 50 to 100 uM measured after 72 hrs by […] microscopic analysis; conditions: dose 50-100 µM
[42] = tested on: NCI-H446; experiment: Induction of apoptosis in human NCI-H446 cells assessed as decrease in PARP level at 0.5 to 2 uM by Western blot analysis; assay type: functional, cell-based; conditions: dose 0.5-2 µM
[43] = Selectivity index, ratio of IC50 for cytotoxicity against HBE (human bronchial epithelial) cells to IC50 for antiproliferative activity against human NCI-H446 cells; assay type: toxicity, cell-based; conditions: HBE (human bronchial epithelial) cells versus NCI-H446 cells, read-out: Ratio IC50
[44] = tested on: Cell membrane; experiment: Induction of mitochondrial membrane potential loss in human NCI-H446 cells incubated for 24 hrs by JC-1 staining based flow cytometric analysis; assay type: cell membranes; conditions: dose 0.25-2 µM
[45] = tested on: NCI-H446; experiment: Synergistic antiproliferative activity against human NCI-H446 cells assessed as reduction in cell viability incubated for 48 hrs in presence of cisplatin by MTT assay; assay type: functional, cell-based; conditions: dose 0.5-8 µM
[46] = tested on: NCI-H446; experiment: Induction of apoptosis in human NCI-H446 cells assessed as increase in cleaved caspase-9 level at 0.5 to 2 uM by Western blot analysis; assay type: functional, cell-based; conditions: dose 0.5-2 µM
[47] = tested on: CDDP-resistant A549 cell; experiment: Antiproliferative activity against human CDDP-resistant A549 cells assessed as reduction in cell viability at 0.5 to 16 uM incubated for 48 hrs by MTT assay; assay type: functional, cell-based; conditions: dose 0.5-16 µM

SMILES: C=CCc1ccc(O)c(-c2ccc(O)c(CC=C)c2)c1 [HONOKIOL]
- Activity [1]: 1.53%
- IC50 at 48 h [2]: 47.9 µM
- Activity [3]: inactive
- IC50 [4]: 48.1 µM
- Activity [5]: 12.8%
- Activity [6]: 0.47%
- Activity [7]: 2.04%
- IC50 [8]: 41.4 µM
- Activity [9]: 2.61%
- Activity [10]: 15.3%
- Activity [11]: 13%
- Activity [12]: 12.8%
- IC50 at 48 h [13]: 43.7 µM
- Activity [14]: Toxic
- Activity [15]: 2.17%
- Activity [16]: 0.38%
- Activity [17]: 1.1%
- viability at 2 µM [18]: 69.1%
- IC50 [19]: 44.5 µM
- Activity [20]: inactive
- Activity [21]: 1.98%
- viability at 0.5 µM [22]: 96%
- viability at 1 µM [23]: 73.3%
- Activity [24]: Toxic
- viability at 0.25 µM [25]: 95.4%

SMILES: C=CCc1ccc(OCCC)c(-c2ccc(OCCC[n+]3ccc(/C=C/c4c[nH]c5ccccc45)cc3)c(CC=C)c2)c1.[Br-]
- Activity [1]: 0.08%
- Activity [26]: Non-Toxic
- Activity [27]: Tde
- IC50 at 48 h [2]: 2.62 µM
- Activity [28]: 68.31%
- IC50 [4]: 4.6 µM
- Activity [29]: Active
- Activity [5]: 0.13%
- Drug uptake [30]: Active
- Activity [31]: Active
- Activity [6]: 10.1%
- Activity [32]: Active
- Activity [7]: 57.4%
- IC50 [8]: 2.48 µM
- Activity [33]: Active
- Activity [9]: 2.19%
- Activity [10]: 0.45%
- Activity [34]: Dose-Dependent Effect
- Activity [11]: 95.4%
- Drug uptake [35]: Active
- Activity [12]: 95.4%
- IC50 at 48 h [13]: 23.1 µM
- Activity [36]: Non-Toxic
- Activity [37]: Active
- Activity [15]: 0.14%
- Activity [38]: Active
- Activity [39]: Dose-Dependent Effect
- Activity [40]: Active
- Activity [16]: 39.9%
- Activity [41]: Non-Toxic
- Activity [42]: Active
- Activity [17]: 2.12%
- viability at 2 µM [18]: 1.97%
- Activity [19]: Dose-Dependent Effect
- IC50 [19]: 2.87 µM
- selectivity ratio [43]: ~10
- Activity [44]: Dose-Dependent Effect
- Activity [21]: 88.1%
- viability at 0.5 µM [22]: 1.75%
- Activity [45]: Dose-Dependent Effect
- viability at 1 µM [23]: 1.32%
- Activity [46]: Active
- Activity [47]: inactive
- viability at 0.25 µM [25]: 2.58%
